In assay [1] the test system is OT-1 CD8+ T cells with MC38 tumor cells. The assay can be described thus: Murine Cytotoxic T Lymphocyte Assay (IFN-γ). To be noted: OT-1 CTL with SIINFEKL-pulsed MC38 cells, 24 h; read-out: msCTL INFg IC50. Format: cell-based, mouse. The text has this:
5. Murine Cytotoxic T Lymphocyte Assay
An antigen-specific cytolytic T-cell (CTL) assay was developed to evaluate functionally the ability of DGKα and DGKζ inhibitors to enhance effector T cell mediated tumor cell killing activity. CD8^+ T-cells isolated from the OT-1 transgenic mouse recognize antigen presenting cells, MC38, that present the ovalbumin derived peptide […]. Recognition of the cognate antigen initiates the cytolytic activity of the OT-1 antigen-specific CD8+ T cells.
Functional CTL cells were generated as follows: OT-1 splenocytes from 8-12 week old mice were isolated and expanded in the presence of the […] peptide at 1 μg/mL and mIL2 at 10 U/mL. After three days, fresh media with […] was added. On day 5 of the expansion, the CD8+ T cells were isolated and ready for use. Activated CTL cells may be stored frozen for 6 months. Separately, one million MC38 tumor cells were pulsed with 1 μg/mL of […]-OVA peptide for 3 hours at 37 °C. The cells were washed (3×) with fresh media to remove excess peptide. Finally, CTL cells that were pretreated with DGK inhibitors for 1 hour in a 96-well U bottom plate were combined with the antigen loaded MC38 tumor cells at a 1:10 ratio. The cells were then spun at 700 rpm for 5 min and placed in an incubator overnight at 37 °C After 24 hours, the supernatant was collected for analysis of IFN-γ cytokine levels by AlphaLisa purchased from Perkin Elmer.

The test system of the next assay is naïve human CD8 T cells. As to the kind of experiment: Human CD8 T Cells IFN-γ Assay. The assay is classed as cell-based. To be noted: anti-CD3 + anti-CD28, 20 h, normalized to 3 μM reference compound, read-out: HuCD8 INFG Normalized EC50. The protocol:
7. Human CD8 T Cells IFN-γ Assay
Frozen naïve human CD8 T cells were thawed in AIM-V media, incubated for 2 h in 37 °C, and counted. The 384-well tissue culture plate was coated overnight at 4 °C with 20 μL anti-human CD3 at […] in PBS, which was removed off the plate before 40,000 cells per 40 microliters CD8 T cells with 0.1 μg/mL soluble anti-human CD28 were added to each well. The compounds were transferred using an Echo liquid handler to the cell plate immediately after the cells were plated. After 20 h incubation at 37 °C incubator, 3 microliters per well supernatants transferred into a new 384-well white assay plate for cytokine measurement.
Interferon-γ (IFN-γ) was quantitated using the AlphLISA kit (Cat #AL217) as described by the manufacturer manual (Perkin Elmer). The counts from each well were converted to IFN-γ concentration (pg/mL).

The test system of the next assay is Human venous whole blood. As to the kind of experiment: Human Whole Blood IFN-γ Assay. Format: cell-based. The conditions noted are these: anti-CD3 + anti-CD28, 24 h, normalized to 3 μM reference compound, read-out: INFg Whole Blood Normalized-Agonist EC50. As to the method: 9. Human Whole Blood IFN-γ Assay
Human venous whole blood (22.5 μL per well), obtained from healthy donors, was pre-treated with compounds for one hour at 37 °C in a humidified 95% air/5% CO2 incubator. The blood was stimulated with 2.5 μL anti-human CD3 and anti-CD28 mAb at a final concentration of 1 μg/mL each for 24 hours at 37 °C. IFN-γ in the supernatants was measured using AlphLISA kit (Cat #AL217).

Each structure is given as a SMILES string.

For the compound `Cc1ccc(C(c2ccc(F)cc2)N2C[C@H](C)N(c3cc(=O)n(C)c4ccc(C#N)nc34)C[C@H]2C)cc1` (stereo partly drawn) [Compound 10, 8-[(2S,5R)-4-[(4-fluorophenyl)(4-methylphenyl)methyl]-2,5-dimethylpiperazin-1-yl]-5-methyl-6-oxo-5,6-dihydro-1,5-naphthyridine-2-carbonitrile], the EC50 in assay [1] stood at 32 nM; in the assay with naïve human CD8 T cells it was 23 nM; with Human venous whole blood it was 440 nM.

In the case of `CC[C@H]1CN(C(c2ccc(F)cc2)c2nc(C3CC3)no2)[C@H](CC)CN1c1nc(=O)n(C)c2ccc(C#N)nc12` (some centres unmarked) [Compound 26], the EC50 in the assay with Human venous whole blood is 90 nM.

Turning to `Cc1ccc(C(c2ccc(C)cc2)N2C[C@H](C)N(c3cc(=O)n(C)c4ccc(C#N)nc34)C[C@H]2C)cc1` [Compound 16, 8-[(2S,5R)-4-[bis(4-methylphenyl)methyl]-2,5-dimethylpiperazin-1-yl]-5-methyl-6-oxo-5,6-dihydro-1,5-naphthyridine-2-carbonitrile], the values for the EC50 (in assay [1]; in the assay with naïve human CD8 T cells; with Human venous whole blood) were 72 nM, 9.5 nM and 520 nM, respectively.

On to `C[C@@H]1CN(c2c(C#N)c(=O)n(C)c3ccc(C#N)nc23)CCN1C(c1ccc(F)cc1)c1ccc(F)cc1` [Compound 4, (R)-8-(4-(bis(4-fluorophenyl)methyl)-3-methylpiperazin-1-yl)-5-methyl-6-oxo-5,6-dihydro-1,5-naphthyridine-2,7-dicarbonitrile], for which the EC50 in assay [1] was 43 nM; in the assay on naïve human CD8 T cells, 17 nM; in the assay with Human venous whole blood, 400 nM.

With `CC[C@@H]1CN(c2nc(=O)n(C)c3ccc(C#N)nc23)[C@@H](C)CN1C(c1ccc(Cl)cc1)c1ccccn1` (some centres unmarked) [Compound 23], the EC50 with Human venous whole blood came to 10500 nM.

For `CC[C@H]1CN(C(c2ccc(F)cc2)c2nc(C3CC3)no2)[C@H](CC)CN1c1nc(=O)n(C)c2ccc(C#N)nc12` (some centres unmarked) [Compound 25], the EC50 in the assay with Human venous whole blood stood at 15 nM.

Consider `CC[C@@H]1CN(c2nc(=O)n(C)c3ccc(C#N)nc23)[C@@H](C)CN1C(c1ccc(Cl)cc1)c1ccccn1` (some centres unmarked) [Compound 24], for which the EC50 with Human venous whole blood stood at 200 nM.

For the compound `C[C@@H]1CN(c2nc(=O)n(C)c3ccc(C#N)nc23)[C@@H](C)CN1C(c1ccc(F)cc1)c1ccc(C(F)(F)F)cn1` (stereo partly drawn) [Compound 28, 4-((2S,5R)-4-((4-fluorophenyl)(5-(trifluoromethyl)pyridin-2-yl)methyl)-2,5-dimethylpiperazin-1-yl)-1-methyl-2-oxo-1,2-dihydropyrido[3,2-d]pyrimidine-6-carbonitrile], the EC50 in the assay with Human venous whole blood stood at 240 nM.

For `CC[C@@H]1CN(c2nc(=O)n(C)c3ccc(C#N)nc23)[C@@H](C)CN1C(c1ccc(F)cc1)c1ccc(C(F)(F)F)cn1` (stereo partly drawn) [Compound 21, 4-((2S,5R)-5-Ethyl-4-((4-fluorophenyl)(5-(trifluoromethyl)pyridin-2-yl)methyl)-2-methylpiperazin-1-yl)-1-methyl-2-oxo-1,2-dihydropyrido[3,2-d]pyrimidine-6-carbonitrile], in the assay with Human venous whole blood, the EC50 amounted to 43 nM.

In the case of `C[C@@H]1CN(c2cc(=O)n(C)c3ccc(C#N)nc23)[C@@H](C)CN1C(c1ccccc1)c1ccc(F)cc1` (stereo partly drawn) [Compound 5, 8-[(2S,5R)-4-[(4-fluorophenyl) (phenyl)methyl]-2,5-dimethylpiperazin-1-yl]-5-methyl-6-oxo-5,6-dihydro-1,5-naphthyridine-2-carbonitrile], the EC50 with naïve human CD8 T cells was determined as 30 nM; in the assay on Human venous whole blood, 680 nM.

Turning to `CCC(c1ccc(F)cc1F)N1C[C@H](C)N(c2cc(=O)n(C)c3ccc(C#N)nc23)C[C@H]1C` (stereo partly drawn) [Compound 12, 8-((2S,5R)-4-(1-(2,4-difluorophenyl)propyl)-2,5-dimethylpiperazin-1-yl)-5-methyl-6-oxo-5,6-dihydro-1,5-naphthyridine-2-carbonitrile], the EC50 turned out to be 48 nM in the assay on naïve human CD8 T cells and 440 nM in the assay on Human venous whole blood.

Consider `CC[C@@H]1CN(c2nc(=O)n(C)c3ccc(C#N)nc23)[C@@H](C)CN1C(C)c1ccc(C(F)(F)F)cc1` (stereo partly drawn) [Compound 19, 4-((2S,5R)-5-Ethyl-2-methyl-4-(1-(4-(trifluoromethyl)phenyl)ethyl)piperazin-1-yl)-1-methyl-2-oxo-1,2-dihydropyrido[3,2-d]pyrimidine-6-carbonitrile], for which the EC50 in the assay with Human venous whole blood is 520 nM.

Turning to `COc1ccc2c(n1)c(N1C[C@@H](C)N(C(c3ccc(F)cc3)c3ccc(Cl)cc3)C[C@@H]1C)cc(=O)n2C` (stereo partly drawn) [Compound 8, 4-[(2S,5R)-4-[(4-chlorophenyl)(4-fluorophenyl)methyl]-2,5-dimethylpiperazin-1-yl]-6-methoxy-1-methyl-1,2-dihydro-1,5-naphthyridin-2-one], the EC50 with naïve human CD8 T cells is 12000 nM.

In the case of `CCC[C@@H]1CN(c2nc(=O)n(C)c3ccc(C#N)nc23)[C@@H](C)CN1C(C)c1ccc(C(F)(F)F)cc1` (stereo partly drawn) [Compound 33, 1-Methyl-4-((2S,5R)-2-methyl-5-propyl-4-(1-(4-(trifluoromethyl)phenyl)ethyl)piperazin-1-yl)-2-oxo-1,2-dihydropyrido[3,2-d]pyrimidine-6-carbonitrile], the EC50 in the assay with Human venous whole blood is 20000 nM.

Consider `COC(=O)C1CN(c2cc(=O)n(C)c3ccc(C#N)nc23)CCN1C(c1ccc(F)cc1)c1ccc(F)cc1` (centres unmarked) [Compound 2, Methyl 1-(bis(4-fluorophenyl)methyl)-4-(6-cyano-1-methyl-2-oxo-1,2-dihydro-1,5-naphthyridin-4-yl)piperazine-2-carboxylate], for which the figures for the EC50 (in assay [1]; in the assay with naïve human CD8 T cells; with Human venous whole blood) were 64 nM, 62 nM and 520 nM, respectively.

For `CC[C@@H]1CN(c2nc(=O)n(C)c3ccc(C#N)nc23)[C@@H](C)CN1C(C)c1ccc(C(F)(F)F)cc1` (stereo partly drawn) [Compound 20, 4-((2S,5R)-5-Ethyl-2-methyl-4-(1-(4-(trifluoromethyl)phenyl)ethyl)piperazin-1-yl)-1-methyl-2-oxo-1,2-dihydropyrido[3,2-d]pyrimidine-6-carbonitrile], the EC50 in the assay on Human venous whole blood was found to be 32 nM.

Regarding `C[C@@H]1CN(c2cc(=O)n(C)c3ccc(C#N)nc23)[C@@H](C)CN1Cc1ccc(F)cc1C(F)F` [Compound 9, 8-[(2S,5R)-4-{[2-(difluoromethyl)-4-fluorophenyl]methyl}-2,5-dimethylpiperazin-1-yl]-5-methyl-6-oxo-5,6-dihydro-1,5-naphthyridine-2-carbonitrile], the EC50 with naïve human CD8 T cells worked out at 170 nM; in the assay on Human venous whole blood, 1500 nM.

With `CC[C@@H]1CN(c2nc(=O)n(C)c3ccc(C#N)nc23)[C@@H](C)CN1C(c1ccc(F)cc1)c1ccc(C(F)(F)F)cn1` (stereo partly drawn) [Compound 22, 4-((2S,5R)-5-Ethyl-4-((4-fluorophenyl)(5-(trifluoromethyl)pyridin-2-yl)methyl)-2-methylpiperazin-1-yl)-1-methyl-2-oxo-1,2-dihydropyrido[3,2-d]pyrimidine-6-carbonitrile], in the assay on Human venous whole blood, the EC50 was 20 nM.

Consider `CC(c1c(F)cccc1F)N1C[C@H](C)N(c2cc(=O)n(C)c3ccc(C#N)nc23)C[C@H]1C` (stereo partly drawn) [Compound 11, 8-[(2S,5R)-4-[1-(2,6-difluorophenyl)ethyl]-2,5-dimethylpiperazin-1-yl]-5-methyl-6-oxo-5,6-dihydro-1,5-naphthyridine-2-carbonitrile], for which the results for the EC50 in the assay on naïve human CD8 T cells and in the assay with Human venous whole blood were 22 nM and 650 nM, respectively.

Take `CCC(c1ccc(C(F)(F)F)cc1)N1C[C@H](CC)N(c2nc(=O)n(C)c3ccc(C#N)nc23)C[C@H]1CC` (stereo partly drawn) [Compound 18, 4-((2S,5R)-2,5-Diethyl-4-(1-(4-(trifluoromethyl)phenyl)propyl)piperazin-1-yl)-1-methyl-2-oxo-1,2-dihydropyrido[3,2-d]pyrimidine-6-carbonitrile]: the EC50 in the assay with Human venous whole blood was determined as 3750 nM.

Values taken from patent publication US20260355239A1, “COMBINATION OF A T CELL THERAPY AND CONTINUOUS OR INTERMITTENT DGK INHIBITOR DOSING” (Juno Therapeutics, Inc., priority 2022, published 2026).
